Measurements as given in PubChem BioAssay (NCI).
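Assay format: 96-well plates, 48-hour exposure. TGI: total growth inhibition.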

Key:
Experiment in all cases: NCI-60 cell line screen, 48 h
[1] = test system: CCRF-CEM leukemia
[2] = test system: TK-10 renal
[3] = test system: MALME-3M melanoma
[4] = test system: MDA-MB-231 breast
[5] = test system: HS 578T breast
[6] = test system: HCC-2998 colon
[7] = test system: SNB-19 CNS
[8] = test system: HL-60(TB) leukemia
[9] = test system: MDA-N
[10] = test system: SF-268 CNS
[11] = test system: SK-OV-3 ovarian
[12] = test system: M14 melanoma
[13] = test system: K-562 leukemia
[14] = test system: BT-549 breast
[15] = test system: 786-0 renal
[16] = test system: IGROV1 ovarian
[17] = test system: OVCAR-4 ovarian
[18] = test system: LOX IMVI melanoma
[19] = test system: A549 NSCLC

Structure (SMILES)	TGI [1] [µM]	TGI [2] [µM]	TGI [3] [µM]	TGI [4] [µM]	TGI [5] [µM]	TGI [6] [µM]	TGI [7] [µM]	TGI [8] [µM]	TGI [9] [µM]	TGI [10] [µM]	TGI [11] [µM]	TGI [12] [µM]	TGI [13] [µM]	TGI [14] [µM]	TGI [15] [µM]	TGI [16] [µM]	TGI [17] [µM]	TGI [18] [µM]	TGI [19] [µM]
C=C1C(=O)O[C@H]2C1C[C@@H](O)/C(C)=C/CC[C@@]1(C)O[C@H]21 (some centres not stated)	12.6	33.4	16.9	44.8	> 89.5	> 52.6	> 100	9.27	> 50.9	> 100	> 82.7	37.4	28.8	> 44.5	> 48.2	> 43.8	> 43.4	26.6	> 91
C[C@@H]1[C@H](O)CC2=C(CC[C@@H](O)C2(C)C)[C@@]1(CO)CCc1ccoc1	> 50	> 50	> 50	> 50	> 50	> 50	> 50	> 50	> 50		> 50	> 50	> 50	> 50	> 50	> 50	> 50	> 50	> 50
Cc1c2n(c3ccccc13)S(=O)(=O)c1ccccc1-2	> 100	58.2	> 100	39.4	54.8	> 100	46.9	> 100	> 100		31.6	> 100	> 100	> 100	22.7	> 100	> 100	> 100	> 100
CCOc1ccccc1NC(=O)C(=O)C(/C(=N/N)C(=O)OC)c1nc2ccc([N+](=O)[O-])cc2[nH]c1=O (configuration not stated)	> 100	> 100	> 100	> 100	> 100	> 100		> 100	> 100	> 100	> 100	> 100	> 100	> 100	> 100	> 100	> 100	> 100	> 100
CC(=O)OC1OC(c2ccoc2)C[C@@]12C1CCC3O[C@]3(C)[C@]1(C)[C@H](OC(C)=O)[C@H](OC(C)=O)[C@H]2C (some centres not stated)	> 37.5	> 37.5	> 37.5	> 37.5	> 37.5	> 37.5	> 37.5	> 37.5	> 37.5		> 37.5	> 37.5	> 37.5	> 37.5	> 37.5	> 37.5	> 37.5	> 37.5	> 37.5
O=C1NC(N2CCCC(CO)C2)=N/C1=C\c1ccccc1 (configuration not stated)	> 100	> 100	> 100	> 100	> 100	> 100	> 100	> 100	> 100	> 100	> 100	> 100		> 100	> 100	> 100	> 100	> 100	> 100
Cc1csc(NNC(N)=O)n1	> 100	> 100		> 100	> 100	> 100	> 100	> 100	> 100	> 100	> 100	> 100		> 100	> 100	> 100	> 100	> 100	> 100
CSc1nc(Nc2ccccc2Cl)c2c(N)nn(C)c2n1	> 100	> 100	> 100	> 100	> 100	> 100	> 100		> 100	> 100	> 100	> 100	> 100	> 100	> 100	> 100	> 100	> 100	> 100
COc1cc2cc(C(=O)N3CC(CCl)c4ccc([N+](C)(C)Cc5ccc([N+](=O)[O-])cc5)cc43)[nH]c2c(OC)c1OC (configuration not stated)	7.01		7.42	46.6	47	2.95	60	5.55	16.5	56.7	9.64	40.5	5.61	35.6	6.54		13.6		> 100
Cn1c(=O)c2sc3c4sc5c(=O)n(C)c6ccccc6c5c4sc3c2c2ccccc21	> 100	> 100	> 100	> 100	> 100	> 100	> 100	> 100	> 100	> 100	> 100	> 100	> 100	> 100	> 100	> 100	> 100		> 100
CC(=O)NC1C(OC(C)C(=O)NC(C(=O)NC(CCC(=O)NCCCNC2c3ccccc3Nc3cccc([N+](=O)[O-])c32)C(N)=O)C(C)C)C(O)C(CO)OC1(C)OCc1ccccc1 (configuration not stated)	4.59	0.695	2.69	3.02	4.75	2.2	3.67		4.78	3.3	3.33	12.2	7.65	4.1	2.35	3.2	3.64	4.6	1.94
O=[N+]([O-])C1=Cc2cc(Cl)ccc2OC1c1cccc2ccccc12 (configuration not stated)		2.55	2.91	6.23	7.71	2.25	3.04	> 100	3.41	3.29	4.86	3.66	5.68	1.01	1.37	2.87	3.09	0.983	3.85
N#Cc1cc2c(cc1C#N)/C(=N\c1cccc(N)n1)N=C2Nc1cccc(N)n1	> 100	68.8	84.1	40.9	> 100	57.5	> 100	> 100	59.6	49.2	42.4	34.1	> 100	84.3	30.6	> 100		> 100	> 100
